Columns and labels:
[1] = test system: NCI-H929 human myeloma cells; experiment: Inhibition of the proliferation of NCI-H929 cells (luminescent cell viability, CTG); format: cell-based; conditions: Homo sapiens, NCI-H929, 144 h, 6 days, CellTiter-Glo
Description: The effect of the compounds of the present invention on the proliferation of NCI-H929 human myeloma cells was evaluated by using a luminescent cell viability test experiment.
The compound was dissolved and diluted to 5 mM in DMSO, and then serially diluted 4-fold in DMSO to a minimum concentration of 0.31 μM. Each concentration was further diluted 50-fold with RPMI 1640 medium (Thermo Fisher, Cat. No. 72400-047). If the IC50 value of the compound was relatively low, the initial concentration of the compound could be lowered.
NCI-H929 cells (Nanjing Cobioer, Cat. No. CBP60243) were cultured in RPMI 1640 complete medium [containing 10% FBS (GIBCO, Cat. No. 10099-141) and 100 units/mL penicillin-streptomycin (Thermo Fisher, Cat. No. 15140122)]. Cells (15000 cells/mL) were plated in 90 μL of the complete medium in a 96-well plate and cultured overnight, and then 10 μL of the compound solution was added into each well. The cells were cultured in an incubator at 37° C. and 5% CO2 for 6 days. Then the cell culture plate was taken out and balanced to room temperature according to the instruction of the CellTilter-Glo (CTG) kit (Promega, Cat. No. G7572). 50 μL CTG reagent was added for complete lysis, the plate was placed at room temperature for 10 minutes, and the luminescence signal was read with a microplate reader (EnVision, Perkin Elmer). The group containing 0.2% DMSO medium was used as 0% inhibition. The XLfit software was used to plot the compound inhibition curve and calculate the inhibitory IC50 value.

[2] = target: hERG potassium ion channel (Homo sapiens, UniProt Q12809); experiment: Blockade of the hERG potassium ion channel (whole cell patch clamp); format: cell-based; conditions: HEK293 cells stably overexpressing hERG, pH 7.4, tail current, read-out: The percentage of the inhibition to the hERG current at the solubility of 3 μM (n = 2)
Description: The effect of the compound of the present invention on possible arrhythmias was assessed by determining the blockade of the hERG potassium ion channel.
The experiment method was summarized as follows: • Extracellular fluid: 140 mM NaCl, 3.5 mM KCl, 1 mM MgCl2, 2 mM CaCl2, 10 mM D-glucose, 10 mM HEPES, 1.25 mM NaH2PO4, pH=7.4. • Electrode internal solution: 20 mM KCl, 115 mM K-aspartate, 1 mM MgCl2, 5 mM EGTA, 10 mM HEPES, 2 mM Na2-ATP, pH=7.2. • Compound solution: the compound to be tested was dissolved in DMSO and prepared into a stock solution having a concentration of 10 mM, then diluted into the concentration of 3 mM with DMSO, and then diluted into a solution having a concentration of 3 μM with the extracellular solution for subsequent use. • Cell culture: the HEK293 cell line with the stable hERG potassium channel overexpression (Creacell, Cat. No. A-0320) was cultured in a DMEM medium (Gibco, Cat. No. 11995-065) containing […] (Gibco, Cat. No. 1428478) and 0.8 mg/mL G418 (Amresco, Cat. No. E859-5G) at the culture temperature of 37° C. under the carbon dioxide concentration of […]. The spent medium was removed and the cells were washed once with PBS (Gibco, Cat. No. 1009-141). Then 1 mL TrypLE™ Express solution (Gibco, Cat. No. 12604021) was added and the cells were incubated at 37° C. […]. When the cells were detached from the bottom of the dish, 5 mL of complete medium preheated at 37° C. was added. The cell suspension was transferred to a sterile centrifuge tube and centrifuged at 1000 rpm for 5 minutes before cell collection. Cells were inoculated in 6 cm cell culture dishes at the cell inoculation volume of 2.5*10^5 per dish (final volume: 5 mL). Before the patch clamp detection experiment, 3*10^3 cells were plated on the cover slips, cultured in 24-well plates (final volume: 500 μL), and detected 18 hours later. • Voltage stimulation protocol by recording the whole-cell hERG potassium current with the whole cell patch clamp: after forming a whole-cell seal, the cell membrane voltage was clamped at −80 mV. The clamping voltage was depolarized from −80 mV to −50 mV and maintained for 0.5 seconds (as leakage current detection), then stepped to 30 mV and maintained for 2.5 seconds, then quickly returned to −50 mV and maintained for 4 seconds to excite the hERG channel tail current (Peak tail current), the hERG potassium current was recorded every other 10 seconds. Experiment data were collected with EPC-10 amplifier (HEKA) and stored in PatchMaster (HEKA v2x73) software. • Determination: A capillary glass tube (Sutter Instruments) was drawn into a recording electrode with a microelectrode drawing instrument (Sutter Instruments). The cell-loaded cover slip was removed from the 24-well plate placed in the incubator and then placed under an inverted microscope. […] In the whole-cell recording mode, the slow capacitance compensation was performed and the membrane capacitance and the series resistance were recorded, during which the leakage compensation was not applied. After the hERG tail current recorded with the whole cell was stabilized for 3-5 minutes, 8 mL of the compound-free extracellular fluid (blank control) and 8 mL of 3 μM solution of the compound to be tested were sequentially flowed through the recording bath with the gravity perfusion to act on the cells for 5 minutes (or to the current stabilization). The current detected for each cell in the compound-free extracellular fluid was served as its own control. […]

Chain of hERG potassium ion channel (Q12809 whole entry): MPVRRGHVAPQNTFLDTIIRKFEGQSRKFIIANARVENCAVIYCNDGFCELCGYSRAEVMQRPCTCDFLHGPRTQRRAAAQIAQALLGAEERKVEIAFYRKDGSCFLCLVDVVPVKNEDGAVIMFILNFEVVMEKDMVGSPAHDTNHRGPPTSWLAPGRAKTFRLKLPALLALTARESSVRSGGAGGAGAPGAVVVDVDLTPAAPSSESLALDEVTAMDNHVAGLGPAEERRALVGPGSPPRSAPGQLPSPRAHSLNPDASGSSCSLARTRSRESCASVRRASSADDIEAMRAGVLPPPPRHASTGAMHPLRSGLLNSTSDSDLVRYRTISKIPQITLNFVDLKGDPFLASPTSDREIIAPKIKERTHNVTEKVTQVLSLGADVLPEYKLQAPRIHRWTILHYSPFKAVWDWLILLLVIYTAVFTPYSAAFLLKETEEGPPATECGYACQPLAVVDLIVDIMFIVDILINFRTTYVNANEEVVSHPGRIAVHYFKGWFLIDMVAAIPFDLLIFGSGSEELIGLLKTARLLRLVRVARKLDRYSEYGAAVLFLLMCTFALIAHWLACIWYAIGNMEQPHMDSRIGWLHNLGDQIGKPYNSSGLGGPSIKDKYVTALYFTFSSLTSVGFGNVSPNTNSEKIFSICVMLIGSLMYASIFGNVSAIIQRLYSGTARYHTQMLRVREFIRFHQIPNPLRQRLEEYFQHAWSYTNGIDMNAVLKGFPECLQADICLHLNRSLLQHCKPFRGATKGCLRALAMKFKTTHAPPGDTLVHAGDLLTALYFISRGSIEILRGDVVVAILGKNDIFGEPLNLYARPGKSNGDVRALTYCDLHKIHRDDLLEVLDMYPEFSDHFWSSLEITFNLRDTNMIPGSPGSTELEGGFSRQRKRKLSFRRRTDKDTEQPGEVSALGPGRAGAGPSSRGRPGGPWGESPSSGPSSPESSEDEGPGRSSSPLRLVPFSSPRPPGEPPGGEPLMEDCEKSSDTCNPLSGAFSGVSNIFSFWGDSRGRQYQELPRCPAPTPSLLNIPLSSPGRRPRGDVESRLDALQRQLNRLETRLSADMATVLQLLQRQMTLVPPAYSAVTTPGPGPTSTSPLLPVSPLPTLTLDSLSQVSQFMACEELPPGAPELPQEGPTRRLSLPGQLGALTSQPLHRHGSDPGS

SMILES: C[C@H](c1ccc(COc2cccc3c2CN([C@H]2CCC(=O)NC2=O)C3=O)cc1)N1CCN(c2ccc(C#N)cc2F)CC1 [Compound 6, 4-(4-((R)-1-(4-(((2-((S)-2,6-dioxopiperidin-3-yl)-1-oxoisoindolin-4-yl)oxy)methyl)phenyl)ethyl)piperazin-1-yl)-3-fluorobenzonitrile]
- IC50 [1]: 0.1 nM
- inhibition at 5 min, 3 µM [2]: 52%

SMILES: C[C@H](c1ccc(COc2cccc3c2CN([C@H]2CCC(=O)NC2=O)C3=O)cc1)N1CCN(c2ccc(C#N)cn2)CC1 [Compound 16, 6-(4-((R)-1-(4-(((2-((S)-2,6-dioxopiperidin-3-yl)-1-oxoisoindolin-4-yl)oxy)methyl)phenyl)-ethyl)piperazin-1-yl)nicotinonitrile]
- IC50 [1]: 0.1 nM
- inhibition at 5 min, 3 µM [2]: 58%

SMILES: C[C@H](c1ccc(COc2cccc3c2CN([C@H]2CCC(=O)NC2=O)C3=O)cc1)N1CCN(c2ncc(C#N)cc2F)CC1 [Compound 22, 6-(4-((R)-1-(4-(((2-((S)-2,6-dioxopiperidin-3-yl)-1-oxoisoindolin-4-yl)oxy)methyl)phenyl)-ethyl)piperazin-1-yl)-5-fluoronicotinonitrile]
- IC50 [1]: 0.6 nM
- inhibition at 5 min, 3 µM [2]: 20%

SMILES: C[C@H](c1ccc(COc2cccc3c2CN([C@H]2CCC(=O)NC2=O)C3=O)cc1)N1CCN(c2ccc(C#N)nc2)CC1 [Compound 21, 5-(4-((R)-1-(4-(((2-((S)-2,6-dioxopiperidin-3-yl)-1-oxoisoindolin-4-yl)oxy)methyl)phenyl)ethyl)piperazin-1-yl)-2-cyanopyridine]
- IC50 [1]: 0.04 nM
- inhibition at 5 min, 3 µM [2]: 49%

— patent US20230271933A1, “HETEROCYCLIC IMMUNOMODULATOR” (Beijing Innocare Pharma Tech Co., Ltd., priority 2020, published 2023)
